Experimental data from PMC10287695, “Non-covalent inhibitors of thioredoxin glutathione reductase with schistosomicidal activity in vivo” (Nature Communications, 2023).
Values joined by “and” are separate entries in the source; they are usually repeats but may differ in a detail not shown here. Equal values may be shown once. Read-outs that look alike come from different tables or passages of the source.

Columns and labels:
TGR [1] = target: T1, TGR (Schistosoma mansoni, UniProt Q962Y6, X597U); assay: Superoxide production (pyrogallol red); assay type: biochemical, S. mansoni; conditions: replicates
T1 construct: made in house
Method: The production of superoxide by TGR was determined by monitoring reaction of superoxide with pyrogallol red[80]. Briefly, a 1 ml reaction mix (500 nM TGR, 100 µM NADPH, and 20–50 µM inhibitor) was incubated at room temperature for 30 min for fast inhibitors, or 2 h for slow inhibitors. For irreversible inhibitor controls TRi-1 (synthesized in house as reported[45]), Stattic (Cayman Chemical), and AF (Cayman Chemical), the samples were desalted using a Zeba spin desalting column. 100 µL of sample was combined with pyrogallol buffer with and without superoxide dismutase (SOD) (50 µM pyrogallol red, 300 µM NADPH; ± 10 units SOD). The reaction was measured at A340 and A540 simultaneously for 2 h.

TGR [2] = target: T2, TGR (Schistosoma mansoni, UniProt Q962Y6); assay type: biochemical, S. mansoni; conditions: for mode of inhibition (NADPH varied): steady state
T2 construct: made in house
T2 sequence (Q962Y6 1-598): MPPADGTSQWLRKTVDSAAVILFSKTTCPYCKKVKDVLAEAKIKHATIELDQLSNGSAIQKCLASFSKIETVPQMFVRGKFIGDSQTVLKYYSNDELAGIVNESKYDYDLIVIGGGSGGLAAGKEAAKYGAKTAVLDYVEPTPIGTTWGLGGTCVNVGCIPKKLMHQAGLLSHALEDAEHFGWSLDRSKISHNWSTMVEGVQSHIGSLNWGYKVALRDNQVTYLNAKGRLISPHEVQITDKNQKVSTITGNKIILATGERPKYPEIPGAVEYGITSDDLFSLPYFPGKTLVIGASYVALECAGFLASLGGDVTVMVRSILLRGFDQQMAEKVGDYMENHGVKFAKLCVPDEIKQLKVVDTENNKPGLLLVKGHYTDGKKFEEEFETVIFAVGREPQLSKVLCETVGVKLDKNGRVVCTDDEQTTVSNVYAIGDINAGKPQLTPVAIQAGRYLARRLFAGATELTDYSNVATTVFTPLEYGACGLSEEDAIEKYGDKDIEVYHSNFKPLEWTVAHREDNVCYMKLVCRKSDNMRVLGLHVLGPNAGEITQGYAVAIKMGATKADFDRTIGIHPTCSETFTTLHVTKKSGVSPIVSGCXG
Method: Master mixes with varying concentrations of NADPH were made, each with 2 nM TGR in reaction buffer. Inhibitor (2 µl) was added to a 96 well microplate in triplicate for each NADPH and inhibitor concentration, and 192 µl of the master buffer was added to each well. The reaction incubated for 15 min and 6 µl of 50 mM DTNB was added to each well. The kinetic rate was measured at A412 for 5 min.

[3] = system: S. mansoni adult worms in mice; assay: Schistosomicidal efficacy in infected mice, adult worms (42 d.p.i.); assay type: in vivo; conditions: for Egg burden, Treated, individual mice / Worm burden, Treated, individual mice: Adult worm, listed as 9VP173; for Egg burden, Treated, individual mice: eggs per 50 mg liver (Fig. 6); for decrease in egg burden / decrease in worm burden: mice
Method: To assess the efficacy of the compounds in vivo against juvenile and adult worms, five female Swiss-Webster mice were randomly assigned for the control and experiment groups using a randomization tool embedded in GraphPad Prism. Mice were percutaneously exposed for 1 h to about 80 S. mansoni cercariae. Three- and six-weeks post infection, respectively, for juvenile and adult worms, mice were treated depending on their weight with formulations of the compounds, while the control mice received only the vehicle. Compounds were formulated with 10% DMSO and 10% Tween-80, and vortexed to obtain a uniform mixture. The mixture was sonicated twice for 5 min each time using a digital ultrasonic cleaner heated to 50 °C. Sodium chloride 0.9% (80% normal saline) was added to the mixture, briefly vortexed and sonicated one more time using the same conditions as previous. The investigators were blinded by which group of mice received a treatment and the vehicle, as injection was done by technicians from the Comparative Research Center of Rush University Medical Center. Using a 26 G, 3/8 in intradermal bevel needle, each mouse was administered intraperitoneally with 100 µl of the formulated compound suspension at 50 mg/kg, 100 mg/kg and 200 mg/kg. Mice treated three weeks post infection for juvenile worms were euthanized three weeks post treatment and mice treated six weeks post infection were euthanized one week post treatment with 0.018 ml of Euthasol and 5.85 mg/ml heparin and perfused. The mesenteric and hepatic portal veins of the mice were carefully scanned under the microscope to extract any remaining S. mansoni adult worms and worm burdens were determined. Egg burden was determined by weighing 50 mg of liver tissue from each of treated and control mice. The liver tissues were digested with 5% KOH at 37 °C overnight and washed twice with PBS. The number of eggs per 50 mg of liver tissue was determined using a Keyence BZ-X800 microscope using the egg autofluorescence.

[4] = second of the two columns per substance (condition not given)
[5] = inhibitor 3 µM, NADPH 3 (unit not given)
[6] = inhibitor 3 µM, NADPH 10 (unit not given)
[7] = inhibitor 3 µM, NADPH 30 (unit not given)
[8] = inhibitor 3 µM, NADPH 100 (unit not given)
[9] = inhibitor 3 µM, NADPH 300 (unit not given)
[10] = inhibitor 10 µM, NADPH 3 (unit not given)
[11] = inhibitor 10 µM, NADPH 10 (unit not given)
[12] = inhibitor 10 µM, NADPH 30 (unit not given)
[13] = inhibitor 10 µM, NADPH 100 (unit not given)
[14] = inhibitor 10 µM, NADPH 300 (unit not given)
[15] = inhibitor 30 µM, NADPH 3 (unit not given)
[16] = inhibitor 30 µM, NADPH 10 (unit not given)
[17] = inhibitor 30 µM, NADPH 30 (unit not given)
[18] = inhibitor 30 µM, NADPH 100 (unit not given)
[19] = inhibitor 30 µM, NADPH 300 (unit not given)
[20] = inhibitor 0.6 µM, NADPH 10 (unit not given)
[21] = inhibitor 0.6 µM, NADPH 30 (unit not given)
[22] = inhibitor 0.6 µM, NADPH 100 (unit not given)
[23] = inhibitor 0.6 µM, NADPH 300 (unit not given)
[24] = 1 x 100 mg/kg i.p. at 42 d.p.i.
[25] = 1 x 200 mg/kg i.p. at 42 d.p.i.

Structure (SMILES) | Superoxide production, Pyrogallol red consumption monitored ΔA540 (TGR [1]; condition not given) | Superoxide production, Pyrogallol red consumption monitored ΔA540 (TGR [1]; [4]) | Vmax (TGR [2]; 10 µM fast inhibitor) | Vmax (TGR [2]; 30 µM fast inhibitor) | Rate, single replicate (TGR [2]; [11]) | avg rate (TGR [2]; [11]) | Rate, single replicate (TGR [2]; [12]) | avg rate (TGR [2]; [12]) | Rate, single replicate (TGR [2]; [13]) | avg rate (TGR [2]; [13]) | Rate, single replicate (TGR [2]; [14]) | avg rate (TGR [2]; [14]) | Rate, single replicate (TGR [2]; [16]) | avg rate (TGR [2]; [16]) | Rate, single replicate (TGR [2]; [17]) | avg rate (TGR [2]; [17]) | Rate, single replicate (TGR [2]; [18]) | avg rate (TGR [2]; [18]) | Rate, single replicate (TGR [2]; [19]) | avg rate (TGR [2]; [19]) | also measured
Cc1oc(C2CCCCC2)nc1CN[C@@H]1C[C@@H]2C[C@H]([C@H]1C)C2(C)C [Compound 4] | -0.0003594 and -0.0003266 and -0.0002925 | -3.468e-5 and -5.202e-5 | – | – | – | – | – | – | – | – | – | – | – | – | – | – | – | – | – | – | –
Cc1oc(C2CCCCC2)nc1C(=O)N[C@@H]1C[C@@H]2C[C@H]([C@H]1C)C2(C)C [Compound 7] | -0.0001477 and -0.0001374 and -0.0001423 | -5.501e-5 and -2.739e-5 and -2.749e-5 | 0.023 ± 0.0006 ΔA412/min | 0.005 ± 0.0004 ΔA412/min | 0.014 and 0.01379 and 0.01325 | 0.01368 | 0.01713 and 0.02008 | 0.01811 | 0.02098 and 0.02124 and 0.02207 | 0.02143 | 0.009276 and 0.01989 and 0.01984 | 0.01634 | 0.004132 and 0.003931 and 0.003739 | 0.003934 | 0.004888 and 0.004427 and 0.004285 | 0.004533 | 0.005567 and 0.005953 and 0.005104 | 0.005541 | 0.006433 and 0.00613 and 0.007161 | 0.006575 | Vmax (TGR [2]; 3 µM fast inhibitor): 0.037 ± 0.0031 ΔA412/min; Rate, single replicate (TGR [2]; [5]): 0.004865 and 0.004625 and 0.005262; avg rate (TGR [2]; [5]): 0.004917; Rate, single replicate (TGR [2]; [6]): 0.01865 and 0.01872 and 0.01883; avg rate (TGR [2]; [6]): 0.01873; Rate, single replicate (TGR [2]; [7]): 0.02703 and 0.02752 and 0.02778; avg rate (TGR [2]; [7]): 0.02744; Rate, single replicate (TGR [2]; [8]): 0.03299 and 0.03283 and 0.0326; avg rate (TGR [2]; [8]): 0.03281; Rate, single replicate (TGR [2]; [9]): 0.02949 and 0.03026 and 0.03016; avg rate (TGR [2]; [9]): 0.02997; Rate, single replicate (TGR [2]; [10]): 0.006166 and 0.006168 and 0.006055; avg rate (TGR [2]; [10]): 0.00613; Rate, single replicate (TGR [2]; [15]): 0.002823 and 0.003641; avg rate (TGR [2]; [15]): 0.003232; mode of inhibition (NADPH varied) (TGR [2]): uncompetitive inhibition; mode of inhibition (NADPH varied) (TGR [2]; listed as 7 (9VP108)): uncompetitive behavior
C[C@@H]1[C@H]2C[C@@H](C[C@H]1NCc1nc3ccccc3n1C1CCCCCC1)C2(C)C [Compound 8] | – | – | 0.0091 ± 0.0007 ΔA412/min | 0.0067 ± 7E-5 ΔA412/min | 0.007669 and 0.006838 and 0.009131 | 0.007879 | 0.005991 and 0.006991 and 0.01256 | 0.008514 | 0.006895 and 0.007479 and 0.009519 | 0.007964 | 0.01018 and 0.009394 and 0.01058 | 0.01005 | 0.00609 and 0.005955 and 0.006026 | 0.006024 | 0.006205 and 0.005206 and 0.007748 | 0.006386 | 0.006944 and 0.006279 and 0.006539 | 0.006587 | 0.005974 and 0.006732 and 0.007751 | 0.006819 | Vmax (TGR [2]; 0.6 µM fast inhibitor): 0.05 ± 0.0017 ΔA412/min; Rate, single replicate (TGR [2]; [20]): 0.02362 and 0.02203 and 0.02232; avg rate (TGR [2]; [20]): 0.02266; Rate, single replicate (TGR [2]; [21]): 0.03949 and 0.03661 and 0.03778; avg rate (TGR [2]; [21]): 0.03796; Rate, single replicate (TGR [2]; [22]): 0.04159 and 0.0438 and 0.04407; avg rate (TGR [2]; [22]): 0.04315; Rate, single replicate (TGR [2]; [23]): 0.04835 and 0.04882 and 0.0495; avg rate (TGR [2]; [23]): 0.04889; mode of inhibition (NADPH varied) (TGR [2]): uncompetitive inhibition; mode of inhibition (NADPH varied) (TGR [2]; listed as 8 (9VP173)): uncompetitive behavior; Egg burden, Treated, individual mice ([3]; 1 x 100 mg/kg): 2302 and 2373 and 2391 and 2292 and 2275; Worm burden, Treated, individual mice ([3]; 1 x 100 mg/kg): 24 and 25 and 21 and 15; Egg burden, Treated, individual mice ([3]; 1 x 200 mg/kg): 2221 and 2235 and 2223 and 2217 and 2241; Worm burden, Treated, individual mice ([3]; 1 x 200 mg/kg): 24 and 29 and 27 and 28 and 23; decrease in egg burden [3, 24]: 2.1%; decrease in worm burden [3, 24]: 13.5%; decrease in egg burden [3, 25]: 7% and 6.8%; decrease in worm burden [3, 25]: 19% and 18.9%
